Usually IC50 stands for the concentration at which inhibition is half-maximal.

What all share (format): cell-based
What all share (conditions): Homo sapiens, MIA PaCa-2, 72 h, 3 d, CellTiter-Glo
In general terms: Cellular ATP, detected with luciferase, serves as a proxy for viable cell number.

In assay [1] the test system is Miapaca-2 mutant cells KRAS G12C + R68S. Description: Stable KRAS mutant cell line viability assay (CTG), G12C + R68S. The source says:
(§1) The aim of the study was to determine the potency and efficacy of compounds for cell proliferation using CellTiter-Glo® (CTG) Luminescent Cell Viability Assay (Promega Corp., Madison, WI). We cloned […] KRAS^G12C variant sequences with secondary mutations (V8A, V9Y, S17E, T58I, A59T, S65W, R68S, D69P, M72I, D92R, H95N, Y96D, Q99F, Q99W, Y96H, and F156L) into the Miapaca-2. Totally 14 stable Miapaca-2 mutant cell lines were established through lentivirus infection. For the cell viability assay, cells were dosed with compounds in a 9-point dose-response using a 4 fold dilution series at a top dose of 10 μM. KRAS mutant cells were maintained in DMEM+10% FBS+2.5% HI Horse serum+1% PS+1 μg/mL Puromycin and seeded into 96-well plates at 800-1,500 cells per well 24 h before compound addition and then incubated with compound for 3 d before assaying viability (CellTiter-Glo, Promega). Assays were performed in biological duplicates. Nonlinear regression curves were fitted using Xfit. IC50 (absolute IC50) is the dose at which the estimated viability is 50% relative to untreated wells.

Assay [2] concerns Miapaca-2 mutant cells KRAS G12C + T58I. Description: Stable KRAS mutant cell line viability assay (CTG), G12C + T58I.
From the text: as §1

In assay [3] the test system is Miapaca-2 mutant cells KRAS G12C + Q99W. Description: Stable KRAS mutant cell line viability assay (CTG), G12C + Q99W.
From the text: as §1

Assay [4] concerns Miapaca-2 mutant cells KRAS G12C + M72I. Description: Stable KRAS mutant cell line viability assay (CTG), G12C + M72I.
From the text: as §1

Assay [5] deals with Miapaca-2 mutant cells KRAS G12C + H95N. Description: Stable KRAS mutant cell line viability assay (CTG), G12C + H95N.
From the text: as §1

For assay [6], the system named is Miapaca-2 mutant cells KRAS G12C + V8A. Description: Stable KRAS mutant cell line viability assay (CTG), G12C + V8A.
From the text: as §1

The test system of assay [7] is Miapaca-2 mutant cells KRAS G12C + S17E. Description: Stable KRAS mutant cell line viability assay (CTG), G12C + S17E.
From the text: as §1

Assay [8] relates to Miapaca-2 mutant cells KRAS G12C + F156L. Description: Stable KRAS mutant cell line viability assay (CTG), G12C + F156L.
From the text: as §1

Assay [9] has as its system Miapaca-2 mutant cells KRAS G12C + A59T. Description: Stable KRAS mutant cell line viability assay (CTG), G12C + A59T.
From the text: as §1

The test system of assay [10] is Miapaca-2 mutant cells KRAS G12C + V9Y. Description: Stable KRAS mutant cell line viability assay (CTG), G12C + V9Y.
From the text: as §1

The test system of assay [11] is Miapaca-2 mutant cells KRAS G12C + Y96D. Description: Stable KRAS mutant cell line viability assay (CTG), G12C + Y96D.
From the text: as §1

Assay [12] concerns Miapaca-2 mutant cells KRAS G12C + S65W. Description: Stable KRAS mutant cell line viability assay (CTG), G12C + S65W.
From the text: as §1

In assay [13] the test system is Miapaca-2 mutant cells KRAS G12C + D60P. Description: Stable KRAS mutant cell line viability assay (CTG), G12C + D60P.
In assay [14] the test system is Miapaca-2 mutant cells KRAS G12C + D92R. Description: Stable KRAS mutant cell line viability assay (CTG), G12C + D92R.
From the text: as §1

As to `CCn1c(-c2cc(N3CCOCC3)cnc2[C@H](C)OC)c2c3cc(c(F)cc31)-c1csc(n1)C[C@H](NC(=O)[C@H](C(C)C)N(C)C(=O)[C@H]1C[C@@H](C#CC(F)(F)F)C1)C(=O)N1CCC[C@H](N1)C(=O)OCC(C)(C)C2` (atropisomer, axis not shown; (M)) [Example 11, cis-N-[(1S)-1-[[(7S,13S)-21-ethyl-24-fluoro-(20M)-20-[2-[(1S)-1-methoxyethyl]-5-morpholino-3-pyridyl]-17,17-dimethyl-8,14-dioxo-15-oxa-4-thia-9,21,27,28-tetrazapentacyclo[17.5.2.1^2,5.1^9,13.0^22,26]octacosa-1(25),2,5(28),19,22(26),23-hexaen-7-yl]carbamoyl]-2-methyl-propyl]-N-methyl-3-(3,3,3-trifluoroprop-1-ynyl)cyclobutanecarboxamide], the IC50 in assay [1] is 0.022 µM; in assay [2], 0.003 µM; in assay [3] it was 0.003 µM; in assay [4], 0.001 µM; in assay [5] it was 0.003 µM; in assay [6], 0.001 µM. Further, the concentration for half-maximal inhibition (IC50) in assay [7] was 0.003 µM; in assay [8] it was 0.003 µM; in assay [9] it was 0.032 µM; in assay [10] it was 0.003 µM; in assay [11] it was 0.006 µM; in assay [12] it was 0.003 µM. The IC50 in assay [13] is 0.097 µM; in assay [14], 0.002 µM.
